Legend:
[1] = biological target: T1, rat adrenergic α1B receptor (Rattus norvegicus, UniProt P15823); assay: Adrenergic α1B radioligand binding ([3H]Prazosin); set-up: species or system Wistar Rat; conditions: compound at 0.1 μM; read-out: Percentage inhibition of ligand binding, Adrenergic (0.1 μM) a1B
T1 construct: rat adrenergic α1B receptor obtained from Wistar Rat liver; from tissue; host or cells: Wistar Rat liver
T1 sequence (P15823 1-515): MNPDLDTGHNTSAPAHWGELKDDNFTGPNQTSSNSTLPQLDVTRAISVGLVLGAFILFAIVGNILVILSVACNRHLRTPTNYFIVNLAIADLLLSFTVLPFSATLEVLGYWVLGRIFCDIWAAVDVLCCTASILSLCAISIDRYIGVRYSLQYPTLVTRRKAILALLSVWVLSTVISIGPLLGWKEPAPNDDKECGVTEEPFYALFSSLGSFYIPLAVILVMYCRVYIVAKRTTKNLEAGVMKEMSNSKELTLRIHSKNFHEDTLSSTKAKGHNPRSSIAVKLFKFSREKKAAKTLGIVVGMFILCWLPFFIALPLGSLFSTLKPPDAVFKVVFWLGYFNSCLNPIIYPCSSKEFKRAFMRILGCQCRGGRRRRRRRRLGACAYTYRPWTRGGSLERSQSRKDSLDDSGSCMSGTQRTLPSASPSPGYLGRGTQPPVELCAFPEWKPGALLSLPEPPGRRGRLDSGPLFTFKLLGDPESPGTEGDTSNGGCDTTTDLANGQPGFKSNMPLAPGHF
Protocol: To evaluate in radioligand binding assays the activity of compounds of the invention, rat adrenergic α1B receptor obtained from Wistar Rat liver (Garcia-S'ainz, J. et al, Biochem. Biophys. Res. Commun. 186:760, 1992; Michel, A. et al, Br. J. Pharmacol. 98:883, 1989) in a modified Tris-HCl buffer (50 mM Tris-HCl buffer, pH 7.4, 0.5 mM EDTA) was used. Compounds of the invention were incubated with 0.25 nM [^3H]Prazosin for 60 min at 25° C. Non-specific binding was estimated in the presence of 10 μM phentolamine. Receptor proteins were filtered and washed, the filters were then counted to determine [^3H]Prazosin specifically bound. Compounds were screened at 1 μM or lower, using 1% DMSO as vehicle. Biochemical assay results are presented as the percent inhibition of specific binding in Table 3.

[2] = biological target: T2, human recombinant adrenergic α2A receptor (Homo sapiens, UniProt P08913); assay: Adrenergic α2A radioligand binding ([3H]MK-912); conditions: compound at 0.1 μM; read-out: Percentage inhibition of ligand binding, Adrenergic (0.1 μM) a2A
T2 construct: expressed in transfected cells; host or cells: insect Sf9 cells
T2 sequence (P08913 1-465): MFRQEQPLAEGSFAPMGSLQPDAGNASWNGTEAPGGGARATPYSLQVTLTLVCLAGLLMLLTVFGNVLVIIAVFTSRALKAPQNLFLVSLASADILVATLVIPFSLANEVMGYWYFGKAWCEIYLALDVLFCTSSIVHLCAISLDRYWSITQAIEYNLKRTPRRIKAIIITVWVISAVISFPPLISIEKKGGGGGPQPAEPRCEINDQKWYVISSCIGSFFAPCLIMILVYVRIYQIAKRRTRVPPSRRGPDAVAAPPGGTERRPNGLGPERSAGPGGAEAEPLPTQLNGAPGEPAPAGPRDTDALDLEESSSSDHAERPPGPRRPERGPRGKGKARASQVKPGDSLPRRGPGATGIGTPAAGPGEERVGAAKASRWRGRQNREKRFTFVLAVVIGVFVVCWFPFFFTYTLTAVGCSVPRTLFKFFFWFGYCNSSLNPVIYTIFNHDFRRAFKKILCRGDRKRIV
Protocol: To evaluate in radioligand binding assays the activity of compounds of the invention, human recombinant adrenergic α2A receptor expressed in insect Sf9 cells (Uhlen, S. et al, J. Pharmacol. Exp. Ther. 271:1558, 1994) in a modified Tris-HCl buffer (50 mM Tris-HCl, pH 7.4, 12.5 mM MgCl2, 2 mM EDTA) was used. Compounds of invention were incubated with 1 nM […] for 60 min at 25° C. MK912 is (2S-trans)-1,3,4,5′,6,6′,7,12b-octahydro-1′,3′-dimethyl-spiro[2H-benzofuro[2,3-a]quinolizine-2,4′(111)-pyrimidin]-2′(3′H)-one hydrochloride Non-specific binding was estimated in the presence of 10 μM WB-4101 (2-(2,6-Dimethoxyphenoxyethyl)aminomethyl-1,4-benzodioxane hydrochloride). Receptor proteins were filtered and washed, the filters were then counted to determine [^3H]MK-912 specifically bound. Compounds were screened at 1 μM or lower, using 1% DMSO as vehicle. Biochemical assay results are presented as the percent inhibition of specific binding in Table 3.

[3] = biological target: T3, human recombinant adrenergic α2B receptor (Homo sapiens, UniProt P18089); assay: Adrenergic α2B radioligand binding ([3H]Rauwolscine); conditions: compound at 0.1 μM; read-out: Percentage inhibition of ligand binding, Adrenergic (0.1 μM) a2B
T3 construct: expressed in transfected cells; host or cells: Chinese hamster ovary (CHO) K1 cells
T3 sequence (P18089 1-450): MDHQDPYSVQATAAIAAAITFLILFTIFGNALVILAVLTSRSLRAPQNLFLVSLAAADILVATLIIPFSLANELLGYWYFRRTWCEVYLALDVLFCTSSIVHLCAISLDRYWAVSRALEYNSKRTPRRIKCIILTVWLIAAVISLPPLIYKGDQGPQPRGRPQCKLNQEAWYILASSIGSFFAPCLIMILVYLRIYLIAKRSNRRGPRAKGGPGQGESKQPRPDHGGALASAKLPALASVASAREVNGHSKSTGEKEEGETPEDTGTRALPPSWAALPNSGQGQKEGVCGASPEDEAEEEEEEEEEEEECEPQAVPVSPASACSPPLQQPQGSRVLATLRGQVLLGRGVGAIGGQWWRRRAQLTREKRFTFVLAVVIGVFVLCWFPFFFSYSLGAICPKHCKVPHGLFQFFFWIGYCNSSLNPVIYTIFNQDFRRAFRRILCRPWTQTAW
Protocol: To evaluate in radioligand binding assays the activity of compounds of the invention, human recombinant adrenergic α2B receptor expressed in Chinese hamster ovary (CHO) K1 cells (Uhlen, S. et al, Eur. J. Pharmacol. 343(1):93, 1998) in a modified Tris-HCl buffer (50 mM Tris-HCl, pH 7.4, 12.5 mM MgCl2, 1 mM EDTA, 0.2% BSA) was used. Compounds of the invention were incubated with 2.5 nM [^3H]Rauwolscine for 60 min at 25° C. Non-specific binding was estimated in the presence of 10 μM Prozosin. Receptor proteins were filtered and washed, the filters were then counted to determine [^3H]Rauwolscine specifically bound. Compounds were screened at 1 μM or lower, using 1% DMSO as vehicle. Biochemical assay results are presented as the percent inhibition of specific binding in Table 3.

SMILES | inhibition at 0.1 µM [1] | inhibition at 0.1 µM [2] | inhibition at 0.1 µM [3]
C#CCC1(C)CN(C)Cc2c1n(C)c1ccc(C)cc21 (stereo not drawn) [Compound 47, 2,4,5,8-tetramethyl-4-(prop-2-ynyl)-2,3,4,5-tetrahydro-1H-pyrido[4,3-b]indole] | 34% | 15% | 32%
Cc1ccc2c(c1)c1c(n2C)C(C)(CCc2nc(-c3ccccc3)cs2)CN(C)C1 (stereo not drawn) [Compound 48] | 20% | 2% | -12%

Reference: patent US20130172320A1, “PYRIDO [4,3-B] INDOLE AND PYRIDO [3,4-B] INDOLE DERIVATIVES AND METHODS OF USE” (priority 2010, published 2013)
